B1: CCR5: printed CCR5, probably CCL5 (R&D System), the CCR5 ligand used as chemoattractant (protein, UniProt P13501 24-91, looked up)
C-C motif chemokine 5: SPYSSDTTPCCFAYIARPLPRAHIKEYFYTSGKCSNPAVVFVTRKNRQVCANPEKKWVREYINSLEMS

How the values were obtained:
PEC-Src line = experiment: Three-dimensional (Matrigel) invasion assay; assay type: cell-based, murine; settings: 10 ug/ml osteopontin or 15 ng/ml CCL5 as chemoattractant in upper chamber, three days
Description: The three-dimensional invasion assay was performed as previously reported. […] The transwell was incubated at 37° C. overnight to allow the collagen to solidify. 30,000 cells were then seeded on the bottom of the transwell membrane and allowed to attach. Serum-free growth medium was placed into the bottom chamber, while 10 ug/ml osteopontin (R&D System), or 15 ng/ml CCL5 (R&D System), or 10% FBS was used as a chemo attractant in the medium of the upper chamber. The cells were then chemo attracted across the filter through the collagen above for three days. Cells were fixed in 4% formaldehyde, permeabilized with 0.2% Triton-X in PBS and then stained with […] propidium iodide (PI) for 2 h. Fluorescence was analyzed by confocal z sections (one section every […]) at 10× magnification from the bottom of the filter using a Zeiss LSM 510 Meta inverted confocal microscope at the Kimmel Cancer Center Bioimaging Facilit.
For the comparison to tissue, the in vivo tumor gene expression in the oncogene transformed PEC was compared with the expression in vivo in the dorsolateral ventral prostate of mice with the same strain. […] Upregulation of the receptor ligands CCL2, CCL7, and CCL8 was observed (2- to 3-fold). CCL7, CCL8 and CCL5 are ligands for CCR5, CCL8 and CCL5 for CCR1 (FIG. 16H). […]

PEC lines = experiment: Experimental metastasis assay: intracardiac injection of Luc2-Tomato-Red PEC lines, bioluminescence, X-ray and F-18-NaF imaging; assay type: in vivo, FVB mice
[1] = Maraviroc 8 mg/kg oral vs control, FVB mice, 2 weeks after intracardiac injection of PEC lines, N=8 per group

Molecule	Matrigel invasion of the PEC-Src line (result in words) (PEC-Src line)	reduction of bony metastasis (lower limb bony mass) (PEC lines; [1])	reduction of total body metastatic burden (photon flux) (PEC lines; [1])	effect on metastasis (result in words) (PEC lines; daily oral CCR5 antagonist, bony / spinal osteolytic metastasis in mice)	reduction of spine metastasis (PEC lines; daily oral treatment, F-18-NaF imaging correlated with X-ray, FVB mice)
osteopontin [OPN]	enhanced PEC invasiveness into matrigel	–	–	–	–
Maraviroc	–	> 50%	> 50%	reduction in metastasis	> 90%
B1	enhanced PEC invasiveness into matrigel	–	–	–	–

Reference: patent US10952415B2, “Prostate cancer cell lines, gene signatures and uses thereof” (priority 2011, dated 2021)
